ChEMBL document CHEMBL1152906, “Synthesis and evaluation of carbamate prodrugs of SQ109 as antituberculosis agents” (Bioorg Med Chem Lett, 2009)
Values joined by “and” are separate entries in the source; they are usually repeats but may differ in a detail not shown here. Identical values can stand only once. Values belong to the molecule of their own block, whether it stands above or below them.

Columns and labels:
Rattus norvegicus [1] = test: Tmax in rat assessed as N-Geranyl-N0-(2-adamantyl)ethane-1,2-diamine level at 13 mg/kg, po; assay type: ADME, organism-based; design: dose 13 mg/kg, route oral; conditions: in vivo
Rattus norvegicus [2] = test: Half life in rat assessed as N-Geranyl-N0-(2-adamantyl)ethane-1,2-diamine level at 13 mg/kg, po; assay type: ADME, organism-based; design: dose 13 mg/kg, route oral; conditions: in vivo
Lung [3] = test: Drug uptake in rat lung assessed as N-Geranyl-N0-(2-adamantyl)ethane-1,2-diamine level at 13 mg/kg, po after 10 hrs; assay type: ADME, organism-based; design: dose 13 mg/kg, route oral; conditions: in vivo
[4] = Ratio of drug level in rat lung to plasma assessed as N-Geranyl-N0-(2-adamantyl)ethane-1,2-diamine level at 13 mg/kg, po after 4 hrs; assay type: ADME, organism-based; design: dose 13 mg/kg, route oral; conditions: other tissue
Lung [5] = test: Drug uptake in rat lung assessed as N-Geranyl-N0-(2-adamantyl)ethane-1,2-diamine level at 13 mg/kg, po after 4 hrs; assay type: ADME, organism-based; design: dose 13 mg/kg, route oral; conditions: in vivo
Rattus norvegicus [6] = test: Oral bioavailability in rat assessed as N-Geranyl-N0-(2-adamantyl)ethane-1,2-diamine level at 13 mg/kg; assay type: ADME, organism-based; conditions: in vivo
Rattus norvegicus [7] = test: Cmax in rat assessed as N-Geranyl-N0-(2-adamantyl)ethane-1,2-diamine level at 13 mg/kg, po; assay type: ADME, organism-based; design: dose 13 mg/kg, route oral; conditions: in vivo
Rattus norvegicus [8] = test: Clearance in rat assessed as N-Geranyl-N0-(2-adamantyl)ethane-1,2-diamine level at 13 mg/kg, po; assay type: ADME, organism-based; design: dose 13 mg/kg, route oral; conditions: in vivo
Rattus norvegicus [9] = test: AUC(0 to 24 hrs) in rat assessed as N-Geranyl-N0-(2-adamantyl)ethane-1,2-diamine level at 13 mg/kg, po; assay type: ADME, organism-based, Plasma; design: time < 24 hr, dose 13 mg/kg, route oral; conditions: in vivo
[10] = Stability of compound in Sorensens buffer at pH 7.4; assay type: physicochemical
[11] = Oral bioavailability in rat; assay type: ADME, organism-based; conditions: in vivo
[12] = Oral bioavailability in dog; assay type: ADME, organism-based, Canis lupus familiaris; conditions: in vivo
[13] = Tmax in rat at 13 mg/kg, po; assay type: ADME, organism-based; design: dose 13 mg/kg, route oral; conditions: in vivo
[14] = Cmax in rat at 13 mg/kg, po; assay type: ADME, organism-based; design: dose 13 mg/kg, route oral; conditions: in vivo
[15] = Clearance in rat at 13 mg/kg, po; assay type: ADME, organism-based; design: dose 13 mg/kg, route oral; conditions: in vivo
[16] = Cmax in rat at 1.5 mg/kg, iv; assay type: ADME, organism-based; design: dose 1.5 mg/kg, route intravenous; conditions: in vivo
[17] = AUC(0 to 24 hrs) in rat at 1.5 mg/kg, iv; assay type: ADME, organism-based; design: time < 24 hr, dose 1.5 mg/kg, route intravenous; conditions: plasma
[18] = Half life in rat at 1.5 mg/kg, iv; assay type: ADME, organism-based; design: dose 1.5 mg/kg, route intravenous; conditions: in vivo
[19] = Clearance in rat at 1.5 mg/kg, iv; assay type: ADME, organism-based; design: dose 1.5 mg/kg, route intravenous; conditions: in vivo
[20] = AUC(0 to 24 hrs) in rat at 13 mg/kg, po; assay type: ADME, organism-based; design: time < 24 hr, dose 13 mg/kg, route oral; conditions: plasma
[21] = Half life in rat at 13 mg/kg, po; assay type: ADME, organism-based; design: dose 13 mg/kg, route oral; conditions: in vivo
[22] = Oral bioavailability in rat at 13 mg/kg; assay type: ADME, organism-based; conditions: in vivo

Compound: CC(C)=CCC/C(C)=C/CN(CCNC1C2CC3CC(C2)CC1C3)C(=O)OC(C)OC(=O)C(C)(C)C.O=C(O)/C=C\C(=O)O (centres undefined)
- Stability [10]: Unstable

Compound: CC(C)=CCC/C(C)=C/CNCCNC1C2CC3CC(C2)CC1C3 (centres undefined) [SQ109]
- bioavailability [11]: 12%
- bioavailability [12]: 3.8%
- Tmax [13]: 0.75 h
- Cmax [14]: 499 ng/mL
- CL/F [15]: 82.3 mL/min/kg
- Cmax [16]: 889 ng/mL
- AUC(0-t) at 24 h [17]: 1230 ng·h/mL
- half-life [18]: 5.06 h
- clearance [19]: 17.5 mL/min/kg
- AUC(0-t) at 24 h [20]: 2330 ng·h/mL
- half-life [21]: 3.71 h
- bioavailability [22]: 21.9%

More lines, now with the values ahead:

- Tmax (Rattus norvegicus [1]): 1 h
- t1/2 (Rattus norvegicus [2]): 4.58 h
- Drug uptake (Lung [3]): 29.03 µg/g
- fold change (FC) [4]: 76 and 60
- Drug uptake (Lung [5]): 35.08 µg/g
- F (Rattus norvegicus [6]): 91.4%
- Cmax (Rattus norvegicus [7]): 1309.3 ng/mL
- CL (Rattus norvegicus [8]): 41.5 mL/min/kg
- AUC (Rattus norvegicus [9]): 5441.2 ng·h/mL
Compound: CC(C)=CCC/C(C)=C/CN(CCNC1C2CC3CC(C2)CC1C3)C(=O)OCOC(=O)C(C)C.O=C(O)/C=C\C(=O)O (centres undefined)

- Stability [10]: Unstable
Compound: CC(C)=CCC/C(C)=C/CN(CCNC1C2CC3CC(C2)CC1C3)C(=O)OC(C)OC(=O)C(C)C.O=C(O)/C=C\C(=O)O (centres undefined)

- Tmax (Rattus norvegicus [1]): 1.4 h
- t1/2 (Rattus norvegicus [2]): 5.6 h
- F (Rattus norvegicus [6]): 72.6%
- Cmax (Rattus norvegicus [7]): 585.6 ng/mL
- CL (Rattus norvegicus [8]): 50 mL/min/kg
- AUC (Rattus norvegicus [9]): 4224.8 ng·h/mL
Compound: CC(C)=CCC/C(C)=C/CN(CCNC1C2CC3CC(C2)CC1C3)C(=O)OCOC(=O)C(C)(C)C.O=C(O)/C=C\C(=O)O (centres undefined)
